# Results: patent publication US20230310428A1, “EGFR INHIBITOR AND PREPARATION METHOD AND USE THEREOF” (HONGYUN BIOTECH CO., LTD., priority 2020, published 2023)
# Where two headings read alike, the source gives them in different places.
# Assays:
# Assay in all cases: Growth inhibitory activity of compounds on BaF3 cell lines stably transfected with kinase (MTS, 48 h)
# Assay type in all cases: cell-based
# [1] = target: T1, various mutants of kinase EGFR (BaF3 cell lines stably transfected with kinase) (Homo sapiens, UniProt P00533, L858R/T790M)
# T1 construct: expressed in transfected cells; host or cells: BaF3
# Method in brief: (§1)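 First, cells were seeded and treated with an eight-point threefold dilution series starting at 10 µM (0.1% DMSO). After 48 h at 37 °C, MTS reagent was added for 1-4 h before absorbance at 490 nm. Inhibition rates gave the IC50.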
# [2] = target: T2, various mutants of kinase EGFR (BaF3 cell lines stably transfected with kinase) (Homo sapiens, UniProt P00533, C797S/L858R/T790M)
# T2 construct: expressed in transfected cells; host or cells: BaF3
# T2 sequence (P00533 25-1210 T790M/C797S/L858R): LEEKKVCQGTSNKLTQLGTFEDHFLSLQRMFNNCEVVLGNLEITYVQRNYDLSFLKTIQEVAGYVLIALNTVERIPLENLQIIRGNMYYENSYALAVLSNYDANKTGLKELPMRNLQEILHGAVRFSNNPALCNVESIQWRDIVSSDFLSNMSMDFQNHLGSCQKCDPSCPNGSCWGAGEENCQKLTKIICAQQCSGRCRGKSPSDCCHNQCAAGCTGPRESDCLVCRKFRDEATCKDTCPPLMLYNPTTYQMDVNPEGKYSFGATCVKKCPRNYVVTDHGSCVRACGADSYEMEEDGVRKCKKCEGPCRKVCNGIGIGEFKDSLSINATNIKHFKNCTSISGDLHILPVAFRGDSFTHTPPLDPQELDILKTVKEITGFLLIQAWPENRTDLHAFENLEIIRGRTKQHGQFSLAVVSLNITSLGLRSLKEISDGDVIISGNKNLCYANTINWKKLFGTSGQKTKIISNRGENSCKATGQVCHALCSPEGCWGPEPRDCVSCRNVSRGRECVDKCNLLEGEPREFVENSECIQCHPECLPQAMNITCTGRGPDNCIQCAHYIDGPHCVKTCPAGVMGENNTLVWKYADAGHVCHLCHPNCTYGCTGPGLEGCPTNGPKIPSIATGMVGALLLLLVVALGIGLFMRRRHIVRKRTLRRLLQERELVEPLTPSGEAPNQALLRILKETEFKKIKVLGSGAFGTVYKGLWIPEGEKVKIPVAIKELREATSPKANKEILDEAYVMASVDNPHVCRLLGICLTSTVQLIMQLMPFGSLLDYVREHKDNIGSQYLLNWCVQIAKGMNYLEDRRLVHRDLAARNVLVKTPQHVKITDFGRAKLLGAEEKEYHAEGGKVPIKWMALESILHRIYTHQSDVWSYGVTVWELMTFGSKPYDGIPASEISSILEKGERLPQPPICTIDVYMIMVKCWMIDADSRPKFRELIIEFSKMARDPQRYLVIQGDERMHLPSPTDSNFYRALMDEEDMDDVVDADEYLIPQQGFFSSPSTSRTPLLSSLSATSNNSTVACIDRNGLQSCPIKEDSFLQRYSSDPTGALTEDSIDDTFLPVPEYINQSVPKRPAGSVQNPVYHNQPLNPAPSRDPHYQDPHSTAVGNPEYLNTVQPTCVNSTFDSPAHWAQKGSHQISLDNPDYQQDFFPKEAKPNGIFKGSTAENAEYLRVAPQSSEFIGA
# Method in brief: as §1
# [3] = target: T3, various mutants of kinase EGFR (BaF3 cell lines stably transfected with kinase) (Homo sapiens, UniProt P00533)
# T3 construct: other: BaF3 cells stably transfected with EGFR Δ19Del; MTS, 48 h; other: BaF3 cell line stably transfected with EGFR Δ19Del
# T3 sequence (P00533 with tags, fused parts or gaps DEL746-750): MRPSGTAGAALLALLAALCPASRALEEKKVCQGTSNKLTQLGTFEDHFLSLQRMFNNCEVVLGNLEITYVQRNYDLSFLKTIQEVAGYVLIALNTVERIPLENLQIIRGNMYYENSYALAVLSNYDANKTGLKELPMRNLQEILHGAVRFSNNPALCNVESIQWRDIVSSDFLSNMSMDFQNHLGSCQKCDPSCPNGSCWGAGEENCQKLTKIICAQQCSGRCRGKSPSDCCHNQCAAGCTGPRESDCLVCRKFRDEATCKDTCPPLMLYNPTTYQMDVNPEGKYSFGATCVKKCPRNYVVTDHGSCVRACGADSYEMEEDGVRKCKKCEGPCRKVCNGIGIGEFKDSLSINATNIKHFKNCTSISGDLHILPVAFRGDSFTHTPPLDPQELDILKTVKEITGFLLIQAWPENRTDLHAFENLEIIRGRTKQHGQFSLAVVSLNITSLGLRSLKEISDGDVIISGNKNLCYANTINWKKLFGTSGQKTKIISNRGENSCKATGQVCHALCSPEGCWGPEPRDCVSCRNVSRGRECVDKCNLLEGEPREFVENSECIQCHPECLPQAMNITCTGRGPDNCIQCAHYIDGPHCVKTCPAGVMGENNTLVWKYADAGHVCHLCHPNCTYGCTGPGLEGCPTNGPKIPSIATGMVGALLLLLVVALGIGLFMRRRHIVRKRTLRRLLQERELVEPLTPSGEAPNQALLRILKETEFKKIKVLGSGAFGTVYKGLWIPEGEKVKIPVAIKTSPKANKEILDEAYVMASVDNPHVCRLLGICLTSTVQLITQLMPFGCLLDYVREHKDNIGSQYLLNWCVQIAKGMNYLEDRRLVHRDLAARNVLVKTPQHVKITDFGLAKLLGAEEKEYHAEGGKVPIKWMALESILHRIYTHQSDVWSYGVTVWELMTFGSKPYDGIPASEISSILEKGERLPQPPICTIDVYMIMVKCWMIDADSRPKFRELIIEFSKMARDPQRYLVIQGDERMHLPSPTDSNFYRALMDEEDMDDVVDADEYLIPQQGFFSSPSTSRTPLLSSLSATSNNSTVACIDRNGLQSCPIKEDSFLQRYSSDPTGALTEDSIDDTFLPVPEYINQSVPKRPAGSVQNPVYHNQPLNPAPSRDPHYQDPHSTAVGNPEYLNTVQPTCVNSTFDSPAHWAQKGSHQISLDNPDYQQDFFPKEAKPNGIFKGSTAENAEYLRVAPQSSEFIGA
# Method in brief: as §1
# [4] = target: T4, various mutants of kinase EGFR (BaF3 cell lines stably transfected with kinase) (Homo sapiens, UniProt P00533, L858R)
# T4 construct: expressed in transfected cells; host or cells: BaF3
# T4 sequence (P00533 25-1210 L858R): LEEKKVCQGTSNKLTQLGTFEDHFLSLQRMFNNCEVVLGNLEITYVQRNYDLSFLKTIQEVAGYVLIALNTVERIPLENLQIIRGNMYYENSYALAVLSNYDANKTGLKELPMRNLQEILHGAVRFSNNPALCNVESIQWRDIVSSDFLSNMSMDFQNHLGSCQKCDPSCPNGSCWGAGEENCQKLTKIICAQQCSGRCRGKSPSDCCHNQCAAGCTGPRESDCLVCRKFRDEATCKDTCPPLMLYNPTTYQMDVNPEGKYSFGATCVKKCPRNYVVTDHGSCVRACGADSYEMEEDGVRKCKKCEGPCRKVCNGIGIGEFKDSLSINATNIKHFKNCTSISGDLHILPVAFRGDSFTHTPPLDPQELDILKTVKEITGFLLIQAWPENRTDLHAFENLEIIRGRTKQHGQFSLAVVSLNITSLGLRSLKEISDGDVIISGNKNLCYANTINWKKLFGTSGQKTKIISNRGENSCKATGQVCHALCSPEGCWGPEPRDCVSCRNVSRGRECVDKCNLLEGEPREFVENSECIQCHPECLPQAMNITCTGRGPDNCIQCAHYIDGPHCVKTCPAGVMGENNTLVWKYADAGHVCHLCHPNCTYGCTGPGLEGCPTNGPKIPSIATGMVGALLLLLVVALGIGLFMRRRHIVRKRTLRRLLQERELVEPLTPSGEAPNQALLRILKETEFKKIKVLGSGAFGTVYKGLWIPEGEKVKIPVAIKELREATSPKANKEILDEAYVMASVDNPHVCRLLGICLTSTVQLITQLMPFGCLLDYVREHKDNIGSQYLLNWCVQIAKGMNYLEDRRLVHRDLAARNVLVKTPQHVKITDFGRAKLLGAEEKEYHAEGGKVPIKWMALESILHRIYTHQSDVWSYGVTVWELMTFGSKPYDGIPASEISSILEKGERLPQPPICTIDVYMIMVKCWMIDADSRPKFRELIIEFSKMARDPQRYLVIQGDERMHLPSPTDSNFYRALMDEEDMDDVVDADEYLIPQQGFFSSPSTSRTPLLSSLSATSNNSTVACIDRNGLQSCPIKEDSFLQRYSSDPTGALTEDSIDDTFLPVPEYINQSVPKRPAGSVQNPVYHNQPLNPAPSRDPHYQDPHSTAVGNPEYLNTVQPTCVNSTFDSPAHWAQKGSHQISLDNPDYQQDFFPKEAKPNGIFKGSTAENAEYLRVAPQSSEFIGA
# Method in brief: as §1
# [5] = target: T5, various mutants of kinase EGFR (BaF3 cell lines stably transfected with kinase) (Homo sapiens, UniProt P00533, T790M, form not given)
# T5 construct: other: BaF3 cells stably transfected with EGFR Δ19Del/T790M; MTS, 48 h; other: BaF3 cell line stably transfected with EGFR Δ19Del/T790M; MTS, 48
# T5 sequence (P00533 with tags, fused parts or gaps DEL746-750/T790M, form open): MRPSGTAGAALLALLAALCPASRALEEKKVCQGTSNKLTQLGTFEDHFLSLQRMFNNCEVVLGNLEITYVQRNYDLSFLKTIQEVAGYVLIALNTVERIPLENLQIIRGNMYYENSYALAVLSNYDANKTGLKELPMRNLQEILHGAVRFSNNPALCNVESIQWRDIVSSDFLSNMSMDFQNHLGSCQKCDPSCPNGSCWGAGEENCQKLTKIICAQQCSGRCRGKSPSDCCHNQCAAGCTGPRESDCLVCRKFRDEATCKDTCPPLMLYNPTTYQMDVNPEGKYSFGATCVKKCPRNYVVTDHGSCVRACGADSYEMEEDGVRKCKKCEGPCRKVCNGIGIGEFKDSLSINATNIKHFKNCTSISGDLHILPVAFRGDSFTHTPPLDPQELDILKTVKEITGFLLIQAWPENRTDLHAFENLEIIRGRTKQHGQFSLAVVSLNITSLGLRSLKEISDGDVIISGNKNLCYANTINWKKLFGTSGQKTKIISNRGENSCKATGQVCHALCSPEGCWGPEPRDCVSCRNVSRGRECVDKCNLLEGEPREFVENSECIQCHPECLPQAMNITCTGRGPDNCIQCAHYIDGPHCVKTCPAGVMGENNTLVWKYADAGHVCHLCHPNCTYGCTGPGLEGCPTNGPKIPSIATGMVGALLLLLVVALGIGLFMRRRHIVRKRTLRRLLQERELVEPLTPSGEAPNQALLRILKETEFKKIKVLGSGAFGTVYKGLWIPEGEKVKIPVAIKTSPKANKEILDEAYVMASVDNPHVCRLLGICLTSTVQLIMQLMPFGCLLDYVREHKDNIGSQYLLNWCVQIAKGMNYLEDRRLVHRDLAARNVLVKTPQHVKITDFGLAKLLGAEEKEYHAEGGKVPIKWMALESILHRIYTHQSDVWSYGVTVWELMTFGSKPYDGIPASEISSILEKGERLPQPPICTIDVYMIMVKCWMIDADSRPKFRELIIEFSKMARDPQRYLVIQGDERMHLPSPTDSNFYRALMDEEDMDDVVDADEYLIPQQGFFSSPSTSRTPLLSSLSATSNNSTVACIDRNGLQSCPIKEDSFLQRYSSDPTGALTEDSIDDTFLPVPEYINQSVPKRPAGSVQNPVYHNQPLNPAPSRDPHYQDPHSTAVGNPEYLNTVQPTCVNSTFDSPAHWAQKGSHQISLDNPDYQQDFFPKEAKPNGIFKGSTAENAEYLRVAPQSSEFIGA
# Method in brief: as §1
# [6] = target: T6, various mutants of kinase EGFR (BaF3 cell lines stably transfected with kinase) (Homo sapiens, UniProt P00533, T790M/C797S, form not given)
# T6 construct: other: BaF3 cells stably transfected with EGFR Δ19Del/T790M/C797S; MTS, 48; other: BaF3 cell line stably transfected with EGFR Δ19Del/T790M/C7
# Method in brief: as §1
# [7] = BaF3 cells stably transfected with EGFR L858R/T790M, read-out: IC50, growth inhibition, L858R/T790M
# [8] = BaF3 cells stably transfected with EGFR L858R/T790M/C797S, read-out: IC50, growth inhibition, L858R/T790M/C797S
# [9] = BaF3 cells stably transfected with EGFR Δ19Del, read-out: IC50, growth inhibition, Δ19Del
# [10] = BaF3 cells stably transfected with EGFR L858R, read-out: IC50, growth inhibition, L858R
# [11] = BaF3 cells stably transfected with EGFR Δ19Del/T790M, read-out: IC50, growth inhibition, Δ19Del/T790M
# [12] = BaF3 cells stably transfected with EGFR Δ19Del/T790M/C797S, read-out: IC50, growth inhibition, Δ19Del/T790M/C797S
# [13] = BaF3 cell line stably transfected with EGFR L858R/T790M, read-out: L858R/ T790M growth inhibitory activity IC50
# [14] = BaF3 cell line stably transfected with EGFR L858R/T790M/C797S, read-out: L858R/T790M/ C797S growth inhibitory activity IC50
# [15] = BaF3 cell line stably transfected with EGFR Δ19Del, read-out: Δ19Del growth inhibitory activity IC50
# [16] = BaF3 cell line stably transfected with EGFR L858R, read-out: L858R growth inhibitory activity IC50
# [17] = BaF3 cell line stably transfected with EGFR Δ19Del/T790M, read-out: Δ19Del/ T790M growth inhibitory activity IC50
# [18] = BaF3 cell line stably transfected with EGFR Δ19Del/T790M/C797S, read-out: Δ19Del/T790M/ C797S growth inhibitory activity IC50
SMILES,"IC50 [1, 7] [nM]","IC50 [2, 8] [nM]","IC50 [3, 9] [nM]","IC50 [4, 10] [nM]","IC50 [5, 11] [nM]","IC50 [6, 12] [nM]","IC50 [1, 13] [nM]","IC50 [2, 14] [nM]","IC50 [3, 15] [nM]","IC50 [4, 16] [nM]","IC50 [5, 17] [nM]","IC50 [6, 18] [nM]"
CCc1cc(Nc2ncc(C)c(Nc3ccc4nccnc4c3N(C)S(C)(=O)=O)n2)c(OC)cc1N1CCC(N(C)C)C1 (stereo not drawn) [Compound I-280],≤ 50,≤ 50,≤ 50,≤ 50,≤ 50,≤ 50,–,–,–,–,–,–
CCc1cc(Nc2ncc(OC)c(Nc3ccc4nccnc4c3N(C)S(C)(=O)=O)n2)c(OC(F)(F)F)cc1N1CCC(N2CCN(C)CC2)CC1 [Compound I-281],≤ 50,≤ 50,≤ 50,≤ 50,≤ 50,≤ 50,–,–,–,–,–,–
CCc1cc(Nc2ncc(OC)c(Nc3ccc4nccnc4c3N(C)S(C)(=O)=O)n2)c(OC)cc1N1CCC(N(C)C)CC1 [Compound I-282],≤ 50,≤ 50,≤ 50,≤ 50,≤ 50,≤ 50,–,–,–,–,–,–
CCc1cc(Nc2ncc(OC)c(Nc3ccc4nccnc4c3N(C)S(C)(=O)=O)n2)c(OC)cc1N1CCN(C)CC1 [Compound I-283],≤ 50,≤ 50,≤ 50,≤ 50,≤ 50,≤ 50,–,–,–,–,–,–
COc1cc(N2CCC(N3CCN(C)CC3)CC2)c(C(C)C)cc1Nc1ncc(Br)c(Nc2ccc3nccnc3c2N(C)S(C)(=O)=O)n1 [Compound I-284],50 to 500,≤ 50,50 to 500,500 to 2500,50 to 500,≤ 50,–,–,–,–,–,–
COc1cc(N2CCC(N3CCN(C)CC3)CC2)c(C2CC2)cc1Nc1ncc(Br)c(Nc2ccc3nccnc3c2N(C)S(C)(=O)=O)n1 [Compound I-285],≤ 50,≤ 50,50 to 500,50 to 500,≤ 50,≤ 50,–,–,–,–,–,–
CCc1cc(Nc2ncc(Br)c(Nc3ccc4nccnc4c3N(C)S(C)(=O)=O)n2)ccc1N1CCC(N2CCN(C)CC2)CC1 [Compound I-286],≤ 50,≤ 50,≤ 50,≤ 50,≤ 50,≤ 50,–,–,–,–,–,–
COc1cc(N2CCC(N3CCN(C)CC3)CC2)c(C2CC2)cc1Nc1ncc(Cl)c(Nc2ccc3nccnc3c2N(C)S(C)(=O)=O)n1 [Compound I-287],≤ 50,≤ 50,50 to 500,50 to 500,≤ 50,≤ 50,–,–,–,–,–,–
COc1cc(N2CCC(N3CCN(C)CC3)CC2)c(C(C)C)cc1Nc1ncc(Cl)c(Nc2ccc3nccnc3c2N(C)S(C)(=O)=O)n1 [Compound I-288],50 to 500,50 to 500,50 to 500,≤ 50,50 to 500,50 to 500,–,–,–,–,–,–
CCc1cc(Nc2ncc(Cl)c(Nc3ccc4nccnc4c3N(C)S(C)(=O)=O)n2)ccc1N1CCC(N2CCN(C)CC2)CC1 [Compound I-289],≤ 50,≤ 50,≤ 50,≤ 50,≤ 50,≤ 50,–,–,–,–,–,–
C=Cc1cc(Nc2ncc([N+](=O)[O-])c(Nc3ccc4nccnc4c3N(C)S(C)(=O)=O)n2)c(OC(F)(F)F)cc1N1CCC(N2CCN(C)CC2)CC1 [Compound I-290],50 to 500,50 to 500,500 to 2500,500 to 2500,50 to 500,50 to 500,–,–,–,–,–,–
COc1cc(N2CCC(N3CCN(C)CC3)CC2)c(C(C)C)cc1Nc1ncc(C2CC2)c(Nc2ccc3nccnc3c2N(C)S(C)(=O)=O)n1 [Compound I-291],50 to 500,500 to 2500,50 to 500,50 to 500,50 to 500,50 to 500,–,–,–,–,–,–
COc1cc(N2CCC(N3CCN(C)CC3)CC2)c(C2CC2)cc1Nc1ncc(C2CC2)c(Nc2ccc3nccnc3c2N(C)S(C)(=O)=O)n1 [Compound I-292],≤ 50,50 to 500,50 to 500,50 to 500,≤ 50,50 to 500,–,–,–,–,–,–
CCc1cc(Nc2ncc(C3CC3)c(Nc3ccc4nccnc4c3N(C)S(C)(=O)=O)n2)ccc1N1CCC(N2CCN(C)CC2)CC1 [Compound I-293],≤ 50,50 to 500,50 to 500,50 to 500,≤ 50,50 to 500,–,–,–,–,–,–
CCS(=O)(=O)N(C)c1c(Nc2nc(Nc3ccc(N4CCC(N5CCN(C)CC5)CC4)cc3OC)ncc2Cl)ccc2nccnc12 [Compound I-294],50 to 500,50 to 500,50 to 500,50 to 500,50 to 500,≤ 50,–,–,–,–,–,–
C=Cc1cc(Nc2ncc(Cl)c(Nc3ccc4nccnc4c3N(C)S(=O)(=O)CC)n2)c(OC(F)(F)F)cc1N1CCC(N2CCN(C)CC2)CC1 [Compound I-295],50 to 500,50 to 500,50 to 500,50 to 500,50 to 500,≤ 50,–,–,–,–,–,–
CCN(c1c(Nc2nc(Nc3ccc(N4CCC(N5CCN(C)CC5)CC4)nc3OC)ncc2Br)ccc2nccnc12)S(C)(=O)=O [Compound I-296],50 to 500,50 to 500,50 to 500,50 to 500,50 to 500,500 to 2500,–,–,–,–,–,–
CCN(c1c(Nc2nc(Nc3cc(C)c(N4CCC(N5CCN(C)CC5)CC4)nc3OC)ncc2Br)ccc2nccnc12)S(C)(=O)=O [Compound I-297],50 to 500,500 to 2500,500 to 2500,50 to 500,50 to 500,500 to 2500,–,–,–,–,–,–
C=Cc1cc(Nc2ncc(Br)c(Nc3ccc4nccnc4c3N(CC)S(C)(=O)=O)n2)c(OC(F)(F)F)cc1N1CCC(N2CCN(C)CC2)CC1 [Compound I-298],50 to 500,≤ 50,50 to 500,50 to 500,≤ 50,≤ 50,–,–,–,–,–,–
CCN(c1c(Nc2nc(Nc3cc(C)c(N4CCC(N(C)C)CC4)cc3OC)ncc2Br)ccc2nccnc12)S(C)(=O)=O [Compound I-299],≤ 50,≤ 50,≤ 50,50 to 500,≤ 50,≤ 50,–,–,–,–,–,–
CCN(c1c(Nc2nc(Nc3cc(C)c(N4CCN(C)CC4)cc3OC)ncc2Br)ccc2nccnc12)S(C)(=O)=O [Compound I-300],≤ 50,≤ 50,50 to 500,50 to 500,50 to 500,≤ 50,–,–,–,–,–,–
CCc1cc(Nc2ncc(Br)c(Nc3ccc4nccnc4c3N(CC)S(C)(=O)=O)n2)c(OC)cc1N1CCN(C)CC1 [Compound I-301],≤ 50,≤ 50,50 to 500,≤ 50,≤ 50,≤ 50,–,–,–,–,–,–
CCN(c1c(Nc2nc(Nc3cc(C)c(N4CCC(N(C)C)C4)cc3OC)ncc2Br)ccc2nccnc12)S(C)(=O)=O (stereo not drawn) [Compound I-302],≤ 50,≤ 50,50 to 500,50 to 500,≤ 50,50 to 500,–,–,–,–,–,–
COc1cc(N2CCC(N3CCN(C)CC3)CC2)ccc1Nc1ncc(Cl)c(Nc2ccc3nccnc3c2N(C2CC2)S(C)(=O)=O)n1 [Compound I-303],–,–,–,–,–,–,50 to 500,≤ 50,50 to 500,50 to 500,50 to 500,≤ 50
C=Cc1cc(Nc2ncc(Cl)c(Nc3ccc4nccnc4c3N(C3CC3)S(C)(=O)=O)n2)c(OC(F)(F)F)cc1N1CCC(N2CCN(C)CC2)CC1 [Compound I-304],–,–,–,–,–,–,≤ 50,50 to 500,50 to 500,50 to 500,≤ 50,50 to 500
COc1nc(N2CCC(N3CCN(C)CC3)CC2)ccc1Nc1ncc(Br)c(Nc2ccc3nccnc3c2N(C2CC2)S(C)(=O)=O)n1 [Compound I-305],–,–,–,–,–,–,≤ 50,50 to 500,50 to 500,50 to 500,50 to 500,50 to 500
